Source: PubChem BioAssay (NCI)
Several values for one entry are separate records, joined by “and”; a condition that tells them apart may be missing. Equal entries are not always repeated.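 Tested at 5 concentrations; 48 h exposure; 96-well plates; endpoints linearly interpolated, else capped at highest concentration. Here, GI50 denotes the concentration required for 50% inhibition of growth. Definition used: TGI = concentration required for complete inhibition of growth.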

How the values were obtained:
Assay in all cases: growth of human tumour cells (NCI), 48 h
[1] = tested on: DMS 114 small cell lung
[2] = tested on: KM20L2 colon
[3] = tested on: SN12C renal
[4] = tested on: KM12 colon
[5] = tested on: HT29 colon
[6] = tested on: OVCAR-8 ovarian
[7] = tested on: HCC-2998 colon
[8] = tested on: HOP-62 NSCLC
[9] = tested on: HS 578T breast
[10] = tested on: MCF7 breast

SMILES	TGI [1]	TGI [2] [µM]	TGI [3] [µM]	TGI [4] [µM]	TGI [5]	TGI [6] [µM]	TGI [7] [µM]	TGI [8]	GI50 [2] [µM]	GI50 [3]	GI50 [4] [µM]	GI50 [5]	GI50 [6]	GI50 [7]	GI50 [8] [µM]	TGI [9]	TGI [10]	GI50 [1]	GI50 [10]	GI50 [9] [µM]
COc1ccc(/C=C2\Cc3ccccc3C2=O)cc1OC	> 100 µM	> 100	> 100	> 100	> 100 µM	> 100	> 100	> 100 µM												
c1ccc2c(CNCCCCCCNCc3cccc4ccccc34)cccc2c1	20.2 µM	6.74	25.3	15.1	5.04 µM	29		30.6 µM												
COC(=O)C[CH](C(=O)OC)[Ge]([CH3])([CH3])[S]c1ccccc1 (stereo not drawn)		67.9	32	46.2	38.5 µM	76.9	> 100	50.5 µM	26.7	16 µM	17	18.6 µM	19.3 µM	40.4 µM	22.4					
CN(C)C[C@H]1CC[C@@H](CN(C)C)C1=O	17.5 µM	25.5	15.4	27.5	21.1 µM	17.1	> 37.5	> 50 µM								36.6 µM	6.19 µM			
COC(=O)/C=C/C(=O)C1C(C(=O)OC)C2(C(=O)OC)CCC1(C(=O)OC)N2 (stereo not drawn)	> 100 µM			> 100	> 100 µM	> 100	> 100	> 100 µM												
C=CN1C(=O)OC(c2ccccc2)C1c1ccccc1 (stereo not drawn)	> 100 µM	> 100	> 100	> 100	> 100 µM	> 100	> 100	> 100 µM	> 100	> 100 µM	> 100	> 100 µM	> 100 µM	> 100 µM	52.8			> 31.6 µM and 73.1 µM		
CC(C)[C@@H]1C=C(c2ccccc2)c2ccccc2C1C(C#N)(C#N)C(C)C (stereo partly drawn)	> 100 µM	> 100	> 100	> 100	> 100 µM	> 100	> 100	> 100 µM												
COc1cc([C@@H]2c3cc4c(cc3[C@@H](NC(=O)c3ccc(N)cc3)C3COC(=O)[C@@H]32)OCO4)cc(OC)c1O (stereo partly drawn)	9.71 µM	9.57	4.54	13.8	19.4 µM	16.3	17.2	3.95 µM												
N#Cc1cccc(NC(=O)c2ccc(C(=O)O)c(C(=O)c3ccc(C(=O)O)c(C(=O)Nc4cccc(C#N)c4)c3)c2)c1	> 100 µM	> 100	> 100	> 100	> 100 µM	> 100		> 100 µM												
CCC1C(C)c2c([nH]c3ccccc23)C2C(=O)N(c3ccccc3)C(=O)C21 (stereo not drawn)	29.7 µM		26.3	32.1	28.2 µM	28.7	28.9													
OCC(O)C(O)c1nn(-c2ccccc2)c2nc3cc(Cl)c(Cl)cc3nc12 (stereo not drawn)	71.4 µM	75.8	> 100	81.2	56 µM	69.2	86.5	> 100 µM												
Cc1nc(C)c(C(=O)Nc2cccc3c2C(=O)NC3=O)cc1C(=O)Nc1cccc2c1C(=O)NC2=O	> 100 µM	> 100	> 100	> 100	> 100 µM	> 100	> 100	> 100 µM												
O=C(CC(=O)N1N=C(c2ccccc2)C(N=Nc2ccc(C(=O)O)cc2)C1=O)Nc1ccc(F)cc1 (stereo not drawn)	> 100 µM	> 100	> 100		> 100 µM	> 100														
CC1=NNC(=NCCN(C)C)C/C1=C/c1ccccc1Cl	> 100 µM	> 100	> 100	> 100	> 100 µM	> 100	> 100	> 100 µM												
COC(=O)C1=C(OC)c2cc3c(cc2C(c2cc(OC)c(OC)c(OC)c2)C1C(=O)OC)OCO3 (stereo not drawn)	> 100 µM	> 100	> 100	> 100	> 100 µM	> 100	> 100	> 100 µM												
O=C1C2c3[nH]c4ccccc4c3[C@@H]3CCCCCCCCCCC3C2C(=O)N1c1ccccc1 (stereo partly drawn)	37 µM		54	42	> 100 µM	42	> 100													
Cn1cnc([N+](=O)[O-])c1Sc1ccccn1	> 100 µM		> 100	> 100	> 100 µM	> 100	> 100	> 100 µM												

SMILES	TGI [1]	TGI [2] [µM]	TGI [3] [µM]	TGI [4] [µM]	TGI [5]	TGI [6] [µM]	TGI [7] [µM]	TGI [8]	GI50 [2] [µM]	GI50 [3]	GI50 [4] [µM]	GI50 [5]	GI50 [6]	GI50 [7]	GI50 [8] [µM]	TGI [9]	TGI [10]	GI50 [1]	GI50 [10]	GI50 [9] [µM]
O=C1c2ccccc2C(=O)c2c(NCCCNCCO)ccc(NCCCNCCO)c21	25.2 µM	19.9	14.4	18.4	15.9 µM	31	16.7	23.8 µM								34.4 µM	10.8 µM			
Cc1c[nH]c2c1C13CC1CN(C(=O)c1cc4cc(NC(=O)c5cc6ccccc6o5)ccc4[nH]1)C3=CC2=O (stereo not drawn)	< 0.001 µM	< 0.001	< 0.001	< 0.001	0.143 µM	< 0.001	< 0.001			> 1.17 ng/mL		> 1.17 ng/mL	> 1.17 ng/mL	> 1.17 ng/mL			11700 ng/mL	> 1.17 ng/mL	> 1.17 ng/mL	
COc1ccc2cccc(C(=O)c3ccc(C)c4c3CCC4)c2c1	> 100 µM	> 100	> 100	> 100	> 100 µM	> 100	43.1	69.3 µM												
CC#C[C@@]1(O)CCCC[C@@H]1O	> 100 µM	> 100	> 100	> 100	> 100 µM	> 100	> 100	> 100 µM												
Cn1c2c([N+](=O)[O-])[se]nc2c(=O)n1-c1ccc([N+](=O)[O-])cc1	0.575 µM	18.3	3.46	15.7	8.12 µM	2.72	3.62	14.2 µM												
C/C1=C\[C@H](C)C[C@H](C)OC(=O)C[C@H](c2ccc(O)cc2)NC(=O)[C@@H](Cc2c(Br)[nH]c3ccccc23)N(C)C(=O)[C@H](C)NC(=O)[C@@H](C)C1	0.837 µM and 1.56 µM	10.7	> 45.9	39.8	0.897 µM and 8.94 µM	0.568	2.27	0.443 µM and 0.369 µM	0.0277	0.0738 µM		0.0216 µM	0.0516 µM	0.43 µM	0.0883	0.606 µM and 0.134 µM	> 100 µM	0.0424 µM	0.208 µM	0.0451
O=C(c1cc(O)ccc1O)c1ccccc1C(Cl)(Cl)Cl	> 100 µM	> 100	> 100	> 100	> 100 µM	> 100	> 100	> 100 µM												
CCOC(=O)C1N(S(=O)(=O)c2ccc(C)cc2)CCC12c1ccccc1N(C(C)=O)C2C(/C=C/C(=O)OC)=C/C(=O)OC (stereo not drawn)	> 100 µM	> 100	> 100	> 100	> 100 µM	> 100	> 100	> 100 µM												
NCCCCCS(=O)(=O)O	> 100 µM	> 100	> 100	> 100	> 100 µM	> 100	> 100	> 100 µM												
Cc1ccc2nc3c(C)c(Cl)c(=O)cc-3sc2c1	12.9 µM	> 100	> 100	74.1	> 100 µM	> 100	> 100	69.4 µM								71.7 µM	61.8 µM			
COC(=O)C(=O)C1(CCC(C)=O)c2ccccc2-c2ccccc21	> 100 µM	> 100	> 100	> 100	> 100 µM	> 100	> 100	> 100 µM												
Nc1ccc(-c2nc3ccc4[nH]ncc4c3c3c2CCCC3)cc1F			13.2	6.3	18.5 µM	21.6	12.3	16.9 µM		1.96 µM	1.11	1.53 µM	1.57 µM	3.04 µM	1.67	3.91 µM	8.92 µM		1.09 µM	1.05
N/C(=N\NS(=O)(=O)c1ccccc1)Oc1ccc(Cl)cc1	> 100 µM	> 100	> 100	> 100	> 100 µM	> 100	> 100	> 100 µM												
CCOC(=O)C(C)(C)Oc1ccc2c(=O)cc(-c3ccccc3)oc2c1	44 µM	52.1	> 100	35.9		51.4	> 100	41 µM												
C[Si](C)(C)/C=C/CCC(C=O)(CCCl)c1ccccc1 (stereo not drawn)	54.9 µM	> 100	> 100	> 100	36 µM	87	> 100													
CCOC1OCCCC1Br (stereo not drawn)			> 100	> 100	> 100 µM	> 100	> 100	> 100 µM								> 100 µM	> 100 µM			
Cc1cc(NS(=O)(=O)c2ccc(Nc3c4ccccc4nc4c(C(=O)Nc5ccc(S(=O)(=O)N=C(N)N)cc5)cccc34)cc2)no1	> 100 µM	> 100	> 100	> 100	> 100 µM	> 100	> 100	> 100 µM												
